Experimental data from ChEMBL document CHEMBL1151106, “Chemical studies on mexican plants used in traditional medicine, VI. Additional new 4-phenylcoumarins from Exostema caribaeum” (1988).
Values after ≈ are worked out from the molar mass of the structure shown. Active and inactive are the calls of the source. No cut-off for these calls is given here.

System: Candida albicans
Assay: Antifungal activity against Candida albicans
Format: functional

Row | Structure (SMILES) | Activity | MIC
1 | COc1cc(O[C@@H]2O[C@H](COC(C)=O)[C@H](O)[C@H](O)[C@H]2O)c2c(-c3ccc(O)c(O)c3)cc(=O)oc2c1 | Active | –
2 | COc1ccc(-c2cc(=O)oc3cc(OC)cc(O[C@@H]4O[C@H](CO)[C@H](O)[C@H](O)[C@H]4O)c23)cc1 | Active | –
3 | COc1cc2c3c(cc(=O)oc3c1)-c1cc(O)c(OC)cc1O2 | inactive | –
4 | COc1cc(O)c2c(-c3ccc(OC)c(O)c3)cc(=O)oc2c1 | Active | –
5 | COc1cc(O)c2c(-c3ccc(O)c(O)c3)cc(=O)oc2c1 | inactive | –
6 | COc1cc(O[C@@H]2O[C@H](CO)[C@H](O)[C@H](O)[C@H]2O)c2c(-c3ccc(O)c(O)c3)cc(=O)oc2c1 | – | 12.5 µg/mL (≈ 27 µM)
7 | COc1cc(O[C@@H]2O[C@H](CO)[C@@H](O)[C@H](O)[C@H]2O)c2c(-c3ccc(O)c(O)c3)cc(=O)oc2c1 | Active | –
